Test results as given in US20210332024A1, “MODULATORS OF PIN1 ACTIVITY AND USES THEREOF” (Yeda Research and Development Co. Ltd., priority 2019, published 2021).

Legend:
GST-Pin1 = GST-Pin1 (Homo sapiens, UniProt Q13526); experiment: Fluorescence polarization (FP) competition assay; type: binding
Method: Binding affinity to Pin1 was determined using a fluorescence polarization assay to assess competition with an N-terminal fluorescein-labeled peptide (Bth-D-phosThr-Pip-Nal), which was obtained from JPT Peptide Technologies and Proteintech Group. The indicated concentrations of candidate compound were pre-incubated for 12 hours at 4° C. with a solution containing 250 nM glutathione S-transferase (GST)-Pin1, 5 nM of fluorescein-labeled peptide probe, 10 μg/ml bovine serum albumin, 0.01% Tween-20 and 1 mM DTT (dithiothreitol) in a buffer of 10 mM HEPES, 10 mM NaCl and 1% glycerol (pH 7.4). Measurements of FP were performed in black 384-well plates (Corning) using an EnVision™ reader. Apparent Ki values (under the tested conditions) obtained from the FP assay results were derived from the Kenakin Ki equation:
Kenakin Ki=(Lb)(EC50)(Kd)/(Lo)(Ro)+Lb(Ro−Lo+Lb−Kd)
Sittampalam G. S. et al., Eli Lilly & Company and the National Center for Advancing Translational Sciences, 2004].
Covalent labeling of Pin1 was confirmed to translate into enzyme inhibition via a fluorescence polarization (FP) competition assay using a FITC-labeled substrate mimetic peptide inhibitor, as well as a chymotrypsin-coupled PPIase assay, using procedures described in Wei et al. [Nat Med 2015, 21:457-466].
The fluorescent polarization assay was performed in a dose-dependent and time-dependent manner, in order to further characterize the kinetic parameters of Pin1-3 binding to Pin1.

[1] = tested on: Pin1-knockout pancreatic cancer cells; experiment: Organoid growth in Matrigel, Pin1-knockout PATU-8988T; type: cell-based; conditions: 1 μM, 9 days
Method: (§1) As three dimensional (3D) organoid models can reflect in vivo results better than monolayer cell culture [Baker et al., Trends Cancer Res 2016, 2:176-190], the anti-proliferative activity of Pin1-3 in PATU-8988T was further evaluated in wild-type or Pin1-knockout cells grown as organoids in Matrigel™ droplets. Cells were treated for 9 days with Pin1-3 (or Pin1-3-AcA or vehicle as a control), replenishing the compound in media every 3 days.

[2] = tested on: MDA-MB-468 breast adenocarcinoma cells; experiment: Prolonged-treatment cell growth, MDA-MB-468; type: cell-based; conditions: MDA-MB-468, 1 or 2.5 μM
Method: The ability of Pin1-3 treatment to induce more pronounced anti-proliferative effects after prolonged treatment (6-8 days) was then assessed. In order to ensure that target engagement was maintained for the duration of the experiment, Pin1-3 was replenished in fresh media every 48 hours.

[3] = Metabolic stability in hepatic microsomes; type: in vitro ADME; conditions: liver microsomes; mouse hepatic microsomes
germinal centers = experiment: Germinal center size after NP-OVA immunization; type: in vivo, mice; conditions: IP 40 mg/kg on days 7 and 9 post immunization, day 11
Method: 12 wild-type mice were immunized with OVA coupled to the hapten 4-hydroxy-3-nitrophenylacetyl (NP-OVA) precipitated in alum. The mice were injected with two doses of Pin1-3 (IP; 40 mg/kg) or vehicle on days 7 and 9 post immunization, and on day 11 the mice were sacrificed and germinal centers size was assessed in lymph nodes by flow cytometry.

[4] = tested on: wild-type 8988T pancreatic cancer cells; experiment: Organoid growth in Matrigel, wild-type PATU-8988T; type: cell-based; conditions: 1 μM, 9 days
Method: as §1

Chain of GST-Pin1 (Q13526 whole entry): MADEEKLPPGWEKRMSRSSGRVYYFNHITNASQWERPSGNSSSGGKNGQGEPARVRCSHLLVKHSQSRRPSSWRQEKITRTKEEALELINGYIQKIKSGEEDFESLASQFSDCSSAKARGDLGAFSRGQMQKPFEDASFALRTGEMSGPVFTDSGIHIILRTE

CC(C)(C)CN(C(=O)CCl)C1CCS(=O)(=O)C1 (centres unmarked) [Pin1-3, 2-chloro-N-(sulfolan-3-yl)-N-neopentylacetamide]
Ki (GST-Pin1; FP assay, competition with fluorescein-labeled peptide, 250 nM GST-Pin1, read-out: Ki (apparent)): 0.11 µM | kinact (GST-Pin1; dose-dependent and time-dependent FP assay): 0.0005 s⁻¹ | kinact/KI (GST-Pin1; dose-dependent and time-dependent FP assay, read-out: Kinact/Ki (apparent)): 29000 M⁻¹ s⁻¹ | Organoid growth [1]: no effect | Cell growth [2]: long-term inhibition | half-life [3]: 41 min | Germinal centers size (FAS^Hi CD38^− GC cells, flow cytometry) (germinal centers): significantly larger germinal centers | Organoid growth [4]: significantly retarded organoid growth
